Experimental data as given in patent US20100048950A1 (BOEHRINGER INGELHEIM INTERNATIONAL GMBH, priority 2007, published 2010).

target: T1, human glucocorticoid receptor (GR) complex (Homo sapiens, UniProt P04150); assay: Glucocorticoid receptor competitive binding assay (fluorescence polarization); conditions: competition with TAMRA-labeled dexamethasone, read-out: potent activity (IC50) in the GR binding assay
T1 construct: made in house; host or cells: insect expression system (baculovirus lysate)
T1 sequence (P04150 1-777): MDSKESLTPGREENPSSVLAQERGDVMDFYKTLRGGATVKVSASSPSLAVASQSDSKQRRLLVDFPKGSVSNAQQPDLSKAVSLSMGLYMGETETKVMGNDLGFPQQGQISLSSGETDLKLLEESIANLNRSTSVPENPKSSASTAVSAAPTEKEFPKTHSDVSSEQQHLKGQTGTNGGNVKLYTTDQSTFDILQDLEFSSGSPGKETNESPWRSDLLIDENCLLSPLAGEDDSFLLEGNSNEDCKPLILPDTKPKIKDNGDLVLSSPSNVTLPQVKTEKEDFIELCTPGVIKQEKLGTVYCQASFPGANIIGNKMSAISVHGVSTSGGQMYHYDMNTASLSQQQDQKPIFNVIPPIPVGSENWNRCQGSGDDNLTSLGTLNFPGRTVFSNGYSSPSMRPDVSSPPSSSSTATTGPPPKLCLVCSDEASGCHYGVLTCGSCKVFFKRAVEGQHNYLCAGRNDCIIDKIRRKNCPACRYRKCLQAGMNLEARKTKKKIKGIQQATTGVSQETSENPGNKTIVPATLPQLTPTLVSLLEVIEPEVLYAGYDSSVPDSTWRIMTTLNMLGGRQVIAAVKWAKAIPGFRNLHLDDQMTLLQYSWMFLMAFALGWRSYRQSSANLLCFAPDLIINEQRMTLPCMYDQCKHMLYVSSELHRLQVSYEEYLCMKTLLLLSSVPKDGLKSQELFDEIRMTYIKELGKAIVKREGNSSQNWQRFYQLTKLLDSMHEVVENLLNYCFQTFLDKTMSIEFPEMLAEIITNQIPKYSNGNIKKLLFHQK
Description: Compounds of the invention were evaluated for binding to the steroid receptor by a fluorescence polarization competitive binding assay. Detailed descriptions for preparation of recombinant glucocorticoid receptor (GR) complex used in the assay is described in U.S. Patent Application Publication No. US 2003/0017503, filed May 20, 2002, and incorporated herein by reference in its entirety. Preparation of the tetramethylrhodamine (TAMRA)-labeled dexamethasone probe was accomplished using a standard literature procedure (M. Pons et al., J. Steroid Biochem., 1985, 22, pp. 267-273).
The affinity of the probe for the steroid receptor was then determined in a titration experiment. The fluorescence polarization value of the probe in assay buffer was measured on an SLM-8100 fluorometer using the excitation and emission maximum values described above. Aliquots of expression vector lysate were added and fluorescence polarization was measured after each addition until no further change in polarization value was observed. Non-linear least squares regression analysis was used to calculate the dissociation constant of the probe from the polarization values obtained for lysate binding to the probe.
This assay uses fluorescence polarization (FP) to quantitate the ability of test compounds to compete with tetramethylrhodamine (TAMRA)-labeled dexamethasone for binding to a human glucocorticoid receptor (GR) complex prepared from an insect expression system. The assay buffer was: 10 mM TES, 50 mM KCl, 20 mM Na2MoO4.2H2O, 1.5 mM EDTA, 0.04% w/v CHAPS, 10% v/v glycerol, 1 mM dithiothreitol, pH 7.4. Test compounds were dissolved to 1 mM in neat DMSO and then further diluted to 10× assay concentration in assay buffer supplemented with 10% v/v DMSO. Test compounds were serially diluted at 10× assay concentrations in 10% DMSO-containing buffer in 96-well polypropylene plates. Binding reaction mixtures were prepared in 96-well black Dynex microtiter plates by sequential addition of the following assay components to each well: 15 μL of 10× test compound solution, 85 μL of GR-containing baculovirus lysate diluted 1:170 in assay buffer, and 50 μL of 15 nM TAMRA-labeled dexamethasone. Positive controls were reaction mixtures containing no test compound; negative controls (blanks) were reaction mixtures containing 0.7 μM to 2 μM dexamethasone. The binding reactions were incubated for 1 hour at room temperature and then read for fluorescence polarization in the LJL Analyst set to 550 nm excitation and 580 nm emission, with the Rhodamine 561 dichroic mirror installed. IC50 values were determined by iterative non-linear curve fitting of the FP signal data to a 4-parameter logistic equation.

Compound	IC50
CCCN(CC(NS(=O)(=O)c1c(C)cc(C)cc1C)C(F)(F)F)c1ccccc1 (stereo not drawn)	≤ 100 nM
Cc1cc(C)c(S(=O)(=O)NC(COc2ccc(F)c(F)c2F)C(F)(F)F)c(C)c1 (stereo not drawn) [2,4,6-Trimethyl-N-[2,2,2-trifluoro-1-(2,3,4-trifluorophenoxymethyl)ethyl]benzenesulfonamide]	≤ 100 nM
Cc1cc(C)c(S(=O)(=O)NC(CSc2ccc(Br)cc2)C(F)(F)F)c(C)c1 (stereo not drawn) [N-[1-(4-Bromophenylsulfanylmethyl)-2,2,2-trifluoroethyl]-2,4,6-trimethylbenzenesulfonamide]	≤ 100 nM
Cc1cc(C)c(S(=O)(=O)NC(CN(C)c2ccccc2)C(F)(F)F)c(C)c1 (stereo not drawn) [2,4,6-Trimethyl-N-{2,2,2-trifluoro-1-[(methylphenylamino)methyl]ethyl}benzenesulfonamide]	≤ 100 nM
CC[C@@H](CNc1cccc2ccccc12)NS(=O)(=O)c1c(C)cc(C)cc1C [2,4,6-Trimethyl-N—[(S)-1-(naphthalen-1-ylaminomethyl)propyl]benzenesulfonamide]	≤ 100 nM
Cc1cc(C)c(S(=O)(=O)NC(COc2cc(F)cc(C(F)(F)F)c2)C(F)(F)F)c(C)c1 (stereo not drawn) [2,4,6-Trimethyl-N-[2,2,2-trifluoro-1-(3-fluoro-5-trifluoromethylphenoxymethyl)ethyl]benzenesulfonamide]	≤ 100 nM
COC(=O)c1ccccc1NCC(NS(=O)(=O)c1c(C)cc(C)cc1C)C(F)(F)F (stereo not drawn) [2-[3,3,3-Trifluoro-2-(2,4,6-trimethylbenzenesulfonylamino)propylamino]benzoic acid methyl ester]	≤ 100 nM
COC(=O)c1ccccc1SCC(NS(=O)(=O)c1c(C)cc(C)cc1C)C(F)(F)F (stereo not drawn) [2-[3,3,3-Trifluoro-2-(2,4,6-trimethylbenzenesulfonylamino)propylsulfanyl]benzoic acid methyl ester]	≤ 100 nM
Cc1cc(C)c(S(=O)(=O)NC(CSc2cccc(Cl)c2)C(F)(F)F)c(C)c1 (stereo not drawn) [N-[1-(3-Chlorophenylsulfanylmethyl)-2,2,2-trifluoroethyl]-2,4,6-trimethylbenzenesulfonamide]	≤ 100 nM
Cc1ccc(OCC(NS(=O)(=O)c2c(C)cc(C)cc2C)C(F)(F)F)c(C)c1 (stereo not drawn) [N-[1-(2,4-Dimethylphenoxymethyl)-2,2,2-trifluoroethyl]-2,4,6-trimethylbenzenesulfonamide]	≤ 100 nM
Cc1cc(C)c(S(=O)(=O)NC(COc2cccc(F)c2)C(F)(F)F)c(C)c1 (stereo not drawn) [2,4,6-Trimethyl-N-[2,2,2-trifluoro-1-(3-fluorophenoxymethyl)ethyl]benzenesulfonamide]	≤ 100 nM
Cc1cc(C)c(S(=O)(=O)NC(CNc2cccc(C#N)c2)C(F)(F)F)c(C)c1 (stereo not drawn) [N-{1-[(3-Cyanophenylamino)methyl]-2,2,2-trifluoroethyl}-2,4,6-trimethylbenzenesulfonamide]	≤ 100 nM
Cc1ccc(NCC(NS(=O)(=O)c2c(C)cc(C)cc2C)C(F)(F)F)cc1 (stereo not drawn) [2,4,6-Trimethyl-N-[2,2,2-trifluoro-1-(p-tolylaminomethyl)ethyl]benzenesulfonamide]	≤ 100 nM
Cc1cc(C)c(S(=O)(=O)NC(CSc2ccccc2C(C)C)C(F)(F)F)c(C)c1 (stereo not drawn) [2,4,6-Trimethyl-N-[2,2,2-trifluoro-1-(2-isopropylphenylsulfanylmethyl)ethyl]benzenesulfonamide]	≤ 100 nM

Continued, values first:

IC50	Compound
≤ 100 nM	Cc1cc(C)c(S(=O)(=O)NC(COc2cccc(C#N)c2)C(F)(F)F)c(C)c1 (stereo not drawn) [N-[1-(3-Cyanophenoxymethyl)-2,2,2-trifluoroethyl]-2,4,6-trimethylbenzenesulfonamide]
≤ 100 nM	Cc1cc(C)c(S(=O)(=O)NC(CSc2c(C)cccc2Cl)C(F)(F)F)c(C)c1 (stereo not drawn) [N-[1-(2-Chloro-6-methylphenylsulfanylmethyl)-2,2,2-trifluoroethyl]-2,4,6-trimethylbenzenesulfonamide]
≤ 100 nM	CC[C@@](C)(CN(CCC#N)c1cccc2ccccc12)NS(=O)(=O)c1c(C)cc(C)cc1C [N—((S)-1-{[(2-Cyanoethyl)naphthalen-1-ylamino]methyl}-1-methylpropyl)-2,4,6-trimethylbenzenesulfonamide]
≤ 100 nM	CCc1cccc(C)c1NCC(NS(=O)(=O)c1c(C)cc(C)cc1C)C(F)(F)F (stereo not drawn) [N-{1-[(2-Ethyl-6-methylphenylamino)methyl]-2,2,2-trifluoroethyl}-2,4,6-trimethylbenzenesulfonamide]
≤ 100 nM	Cc1cc(C)c(S(=O)(=O)NC(CSc2ccccc2)C(F)(F)F)c(C)c1 (stereo not drawn) [2,4,6-Trimethyl-N-(2,2,2-trifluoro-1-phenylsulfanylmethylethyl)benzenesulfonamide]
≤ 100 nM	Cc1cc(C)c(S(=O)(=O)NC(CNc2cc(Cl)ccc2C)C(F)(F)F)c(C)c1 (stereo not drawn) [N-{1-[(5-Chloro-2-methylphenylamino)methyl]-2,2,2-trifluoroethyl}-2,4,6-trimethylbenzenesulfonamide]
≤ 100 nM	Cc1cc(C)c(S(=O)(=O)NC(CSc2ccc(F)cc2)C(F)(F)F)c(C)c1 (stereo not drawn) [2,4,6-Trimethyl-N-[2,2,2-trifluoro-1-(4-fluorophenylsulfanylmethyl)ethyl]benzenesulfonamide]
≤ 100 nM	Cc1cc(C)c(S(=O)(=O)NC(CNc2c(Cl)cc(Cl)cc2Cl)C(F)(F)F)c(C)c1 (stereo not drawn) [2,4,6-Trimethyl-N-{2,2,2-trifluoro-1-[(2,4,6-trichlorophenylamino)methyl]ethyl}benzenesulfonamide]
≤ 100 nM	Cc1cc(C)c(S(=O)(=O)NC(CNc2ccccc2C#N)C(F)(F)F)c(C)c1 (stereo not drawn) [N-{1-[(2-Cyanophenylamino)methyl]-2,2,2-trifluoroethyl}-2,4,6-trimethylbenzenesulfonamide]
≤ 100 nM	Cc1cc(C)c(S(=O)(=O)NC(COc2ccccc2C#N)C(F)(F)F)c(C)c1 (stereo not drawn) [N-[1-(2-Cyanophenoxymethyl)-2,2,2-trifluoroethyl]-2,4,6-trimethylbenzenesulfonamide]
≤ 100 nM	Cc1cc(C)c(S(=O)(=O)NC(CNc2ccccc2OC(F)(F)F)C(F)(F)F)c(C)c1 (stereo not drawn) [2,4,6-Trimethyl-N-{2,2,2-trifluoro-1-[(2-trifluoromethoxyphenylamino)methyl]ethyl}benzenesulfonamide]
≤ 100 nM	Cc1cc(C)c(S(=O)(=O)NC(CNc2cccc(Cl)c2)C(F)(F)F)c(C)c1 (stereo not drawn) [N-{1-[(3-Chlorophenylamino)methyl]-2,2,2-trifluoroethyl}-2,4,6-trimethylbenzenesulfonamide]
≤ 100 nM	Cc1cc(C)cc(OCC(NS(=O)(=O)c2c(C)cc(C)cc2C)C(F)(F)F)c1 (stereo not drawn) [N-[1-(3,5-Dimethylphenoxymethyl)-2,2,2-trifluoroethyl]-2,4,6-trimethylbenzenesulfonamide]
≤ 100 nM	Cc1cc(C)cc(NCC(NS(=O)(=O)c2c(C)cc(C)cc2C)C(F)(F)F)c1 (stereo not drawn) [N-{1-[(3,5-Dimethylphenylamnino)methyl]-2,2,2-trifluoroethyl}-2,4,6-trimethyl-benzenesulfonamide]
≤ 100 nM	Cc1cc(C)c(S(=O)(=O)NC(COc2ccc(Cl)c(C(F)(F)F)c2)C(F)(F)F)c(C)c1 (stereo not drawn) [N-[1-(4-Chloro-3-trifluoromethylphenoxymethyl)-2,2,2-trifluoroethyl]-2,4,6-trimethylbenzenesulfonamide]
≤ 100 nM	Cc1cc(C)c(S(=O)(=O)NC(COc2ccccc2C(F)(F)F)C(F)(F)F)c(C)c1 (stereo not drawn) [2,4,6-Trimethyl-N-[2,2,2-trifluoro-1-(2-trifluoromethylphenoxymethyl)ethyl]benzenesulfonamide]
